Source: PubChem BioAssay (NCI)
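Method: 48-hour compound exposure of cells in 96-well plates, five concentrations, linear interpolation of endpoints. TGI: concentration producing complete growth inhibition.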

System: SN12K1 renal
Test: inhibition of tumour cell growth, NCI panel, 48 h

CCOC(=O)c1ccc(N[C@@H]2c3cc4c(cc3C(c3cc(OC)c(O)c(OC)c3)[C@H]3C(=O)OCC32)OCO4)cc1 (stereo partly specified)
TGI: 1440 nM
